According to article PMC11946580, “In Vitro Enzymatic and Computational Assessments of Pyrazole–Isatin and Pyrazole–Indole Conjugates as Anti-Diabetic, Anti-Arthritic, and Anti-Inflammatory Agents” (Pharmaceutics, 2025):

Legend:
[1] = molecular target: T1, COX-2 (Homo sapiens, UniProt P35354); test: COX-2 inhibition assay (Cayman kit); type: biochemical; conditions: mean ± SE, three replicates
T1 construct: purchased Cayman 560131
T1 sequence (P35354 18-604): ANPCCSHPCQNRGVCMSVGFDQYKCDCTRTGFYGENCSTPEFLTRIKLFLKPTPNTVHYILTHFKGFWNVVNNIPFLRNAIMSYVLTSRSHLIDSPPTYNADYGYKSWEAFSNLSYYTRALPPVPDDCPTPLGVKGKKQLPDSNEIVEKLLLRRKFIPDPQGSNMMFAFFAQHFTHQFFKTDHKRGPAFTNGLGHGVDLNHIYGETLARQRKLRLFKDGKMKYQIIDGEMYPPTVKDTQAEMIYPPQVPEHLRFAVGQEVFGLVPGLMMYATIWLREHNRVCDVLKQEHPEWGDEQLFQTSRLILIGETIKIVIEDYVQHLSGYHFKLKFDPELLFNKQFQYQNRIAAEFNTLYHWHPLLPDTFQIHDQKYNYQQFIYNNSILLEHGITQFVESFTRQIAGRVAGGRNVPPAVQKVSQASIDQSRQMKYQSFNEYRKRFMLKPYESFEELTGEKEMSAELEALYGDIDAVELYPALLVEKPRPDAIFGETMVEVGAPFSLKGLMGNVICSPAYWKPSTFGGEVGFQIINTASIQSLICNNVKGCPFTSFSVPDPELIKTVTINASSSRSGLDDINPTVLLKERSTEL

[2] = molecular target: bovine serum albumin (BSA) (Bos taurus, UniProt P02769); conditions: mean ± SE, three replicates; note: test concentration or dose not given here
[3] = molecular target: T2, COX-1 (Ovis aries, UniProt P05979); test: COX-1 inhibition assay (Cayman kit); conditions: for COX-1 Inhibition (%): mean ± SE, three replicates; for COX-1 Inhibition (%): test concentration or dose not given here
T2 sequence (P05979 25-600): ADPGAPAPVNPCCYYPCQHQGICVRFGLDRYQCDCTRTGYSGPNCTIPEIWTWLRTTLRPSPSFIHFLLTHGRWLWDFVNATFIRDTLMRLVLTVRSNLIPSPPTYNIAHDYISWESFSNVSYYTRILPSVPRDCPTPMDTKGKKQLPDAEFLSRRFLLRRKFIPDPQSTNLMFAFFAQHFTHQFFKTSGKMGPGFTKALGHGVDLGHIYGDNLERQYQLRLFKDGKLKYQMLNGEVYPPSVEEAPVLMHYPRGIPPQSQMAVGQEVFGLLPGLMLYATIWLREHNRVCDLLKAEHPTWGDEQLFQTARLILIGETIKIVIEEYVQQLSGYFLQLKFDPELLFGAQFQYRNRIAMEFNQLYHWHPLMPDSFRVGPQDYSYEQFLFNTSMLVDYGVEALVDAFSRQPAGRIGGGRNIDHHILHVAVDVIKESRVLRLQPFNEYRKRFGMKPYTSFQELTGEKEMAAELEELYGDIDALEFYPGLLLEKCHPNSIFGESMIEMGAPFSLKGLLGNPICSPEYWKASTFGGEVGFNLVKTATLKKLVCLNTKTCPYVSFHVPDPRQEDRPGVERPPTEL

[4] = molecular target: T3, 5-LOX (Homo sapiens, UniProt P09917); test: 5-Lipoxygenase inhibition assay (kit); conditions: for 5-LOX Inhibition (%): mean ± SE, three replicates; for 5-LOX Inhibition (%): test concentration or dose not given here
T3 sequence (P09917 1-674): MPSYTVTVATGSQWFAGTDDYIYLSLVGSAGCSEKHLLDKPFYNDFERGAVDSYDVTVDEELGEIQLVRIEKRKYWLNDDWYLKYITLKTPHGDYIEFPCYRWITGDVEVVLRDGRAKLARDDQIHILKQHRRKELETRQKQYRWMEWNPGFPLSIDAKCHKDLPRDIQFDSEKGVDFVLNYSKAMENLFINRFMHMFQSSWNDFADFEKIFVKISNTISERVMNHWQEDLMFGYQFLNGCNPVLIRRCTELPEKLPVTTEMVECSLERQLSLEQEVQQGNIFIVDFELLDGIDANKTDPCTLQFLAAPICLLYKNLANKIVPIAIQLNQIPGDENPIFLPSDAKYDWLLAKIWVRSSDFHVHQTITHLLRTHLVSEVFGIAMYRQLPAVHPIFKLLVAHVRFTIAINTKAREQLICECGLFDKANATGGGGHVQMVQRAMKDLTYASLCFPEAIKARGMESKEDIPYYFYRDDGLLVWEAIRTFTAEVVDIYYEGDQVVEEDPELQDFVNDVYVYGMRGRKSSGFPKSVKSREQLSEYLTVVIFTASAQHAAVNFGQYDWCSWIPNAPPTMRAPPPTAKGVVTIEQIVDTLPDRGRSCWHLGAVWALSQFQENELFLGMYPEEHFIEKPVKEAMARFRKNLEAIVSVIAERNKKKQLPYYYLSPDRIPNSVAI

[5] = molecular target: α-glucosidase enzyme; design: method as in PMID 38225280; conditions: cited from earlier work
[6] = molecular target: cyclooxygenase-2 (COX-2) enzyme; design: method as in PMID 37985602; conditions: cited from earlier work
[7] = molecular target: cyclooxygenase-1 (COX-1) enzyme; design: method as in PMID 37985602; conditions: cited from earlier work
[8] = tested on: pancreatic cancer (PaCa-2) cells; design: method as in PMID 39193301; conditions: cited from earlier work
[9] = design: method as in doi:10.1007/s11164-024-05318-1; conditions: read-out: antioxidant activities IC50; cited from earlier work
[10] = molecular target: α-amylase enzyme; design: method as in PMID 34600331; conditions: cited from earlier work
[11] = molecular target: α-glucosidase (Saccharomyces cerevisiae, UniProt P53341); test: α-glucosidase inhibition assay (pNPG); type: biochemical; conditions: mean ± SE, three replicates
Description: In vitro enzymatic assessments
The mixture was then left at
The absorbance was measured
the enzymatic activity. […] The IC50

[12] = molecular target: COX-2 enzyme; design: method as in PMID 39143406; conditions: cited from earlier work
[13] = design: method as in PMID 39143406; conditions: cited from earlier work
[14] = tested on: diabetic mice; design: method as in PMID 38029465; conditions: cited from earlier work

Chain of bovine serum albumin (BSA) (P02769 25-607): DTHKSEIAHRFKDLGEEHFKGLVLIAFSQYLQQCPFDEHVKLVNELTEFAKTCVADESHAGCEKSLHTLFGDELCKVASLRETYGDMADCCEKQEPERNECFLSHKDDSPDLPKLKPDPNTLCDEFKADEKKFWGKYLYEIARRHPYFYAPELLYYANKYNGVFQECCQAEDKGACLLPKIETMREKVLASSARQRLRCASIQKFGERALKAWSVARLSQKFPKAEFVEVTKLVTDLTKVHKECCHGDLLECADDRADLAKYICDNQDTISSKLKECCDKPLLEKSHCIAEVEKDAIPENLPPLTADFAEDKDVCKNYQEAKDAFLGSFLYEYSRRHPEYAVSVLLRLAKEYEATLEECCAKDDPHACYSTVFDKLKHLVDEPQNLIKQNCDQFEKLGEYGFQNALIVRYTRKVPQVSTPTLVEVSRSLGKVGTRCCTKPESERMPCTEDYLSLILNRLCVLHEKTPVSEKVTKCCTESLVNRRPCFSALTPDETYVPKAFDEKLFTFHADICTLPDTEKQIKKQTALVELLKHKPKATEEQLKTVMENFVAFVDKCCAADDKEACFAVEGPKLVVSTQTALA
Chain of α-glucosidase (P53341 whole entry): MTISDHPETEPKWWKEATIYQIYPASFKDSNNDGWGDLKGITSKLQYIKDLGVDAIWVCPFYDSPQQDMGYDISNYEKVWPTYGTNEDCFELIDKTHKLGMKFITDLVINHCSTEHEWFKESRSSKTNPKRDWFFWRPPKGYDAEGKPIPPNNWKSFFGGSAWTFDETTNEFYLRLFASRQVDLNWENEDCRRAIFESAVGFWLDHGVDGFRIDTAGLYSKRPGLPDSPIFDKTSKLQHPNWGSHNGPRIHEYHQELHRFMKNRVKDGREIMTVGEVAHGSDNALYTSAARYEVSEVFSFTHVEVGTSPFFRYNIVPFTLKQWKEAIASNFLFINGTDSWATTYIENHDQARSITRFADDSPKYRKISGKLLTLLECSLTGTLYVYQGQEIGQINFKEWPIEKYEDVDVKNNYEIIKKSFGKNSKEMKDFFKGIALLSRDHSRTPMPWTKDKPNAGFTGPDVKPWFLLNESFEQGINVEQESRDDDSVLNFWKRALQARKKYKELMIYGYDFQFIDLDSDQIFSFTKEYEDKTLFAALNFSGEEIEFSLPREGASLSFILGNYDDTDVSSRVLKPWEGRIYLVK

Row | Compound | COX-2 Inhibition (%) [1] | IC50 [1] | Protein Denaturation Inhibition (%) [2] | IC50 [3] | COX-1 Inhibition (%) [3] | IC50 [4] | 5-LOX Inhibition (%) [4] | also measured
1 | CN1C(=O)C(=Nc2[nH]nc(Nc3ccccc3)c2C(=O)Nc2ccccc2)c2ccccc21 [12a] | 19.72 ± 0.04% | 45 µM | 14.40 ± 0.03% | 49.8 µM | 17.47 ± 0.04% | 49.9 µM | 9.57 ± 0.04% | –
2 | Cc1cc(-c2nnc(S)n2N)n[nH]1 [compound 1] | – | – | – | – | – | – | – | IC50 [5]: 95.85 ± 0.92 µM
3 | O=C(Nc1cc(-c2ccccc2)nn1-c1ccccc1)c1ccc(/C=C/C(=O)c2ccc(Cl)s2)cc1 [compound 2] | – | – | – | – | – | – | – | IC50 [6]: 1760 nM; IC50 [7]: 10.2 µM
4 | CC(c1cc2ccccc2s1)N(O)C(N)=O (stereo not shown) [Zileuton, reference compound] | – | – | – | – | – | – | 72.61 ± 0.07% | –
5 | COc1ccc(Nc2n[nH]c(N=Cc3c[nH]c4ccccc34)c2C(=O)Nc2ccccc2)cc1 [14c] | 37.32 ± 0.26% | 23 µM | 26.13 ± 0.17% | 24 µM | 35.07 ± 0.26% | 27.8 µM | 27.17 ± 0.26% | –
6 | CCc1nn(-c2ccc([N+](=O)[O-])cc2)c(C)c1C(=O)/C=C/c1ccccc1 [compound 3] | – | – | – | – | – | – | – | PaCa-2 cells IC50 [8]: 13.0 µg/mL; cell cycle effect in treated PaCa-2 cells [8]: induces cell cycle arrest at the S and G2/M phases
7 | COc1ccc(Nc2n[nH]c(N=C3C(=O)N(C)c4ccccc43)c2C(=O)Nc2ccc(C)cc2)cc1 [12d] | 23.05 ± 0.04% | 35 µM | 16.62 ± 0.03% | 38 µM | 20.80 ± 0.04% | 39.4 µM | 12.90 ± 0.04% | –
8 | Cc1ccc(NC(=O)c2c(Nc3ccccc3)n[nH]c2N=C2C(=O)N(C)c3ccccc32)cc1 [12b] | 21.00 ± 0.04% | 40.9 µM | 15.25 ± 0.03% | 44.9 µM | 18.75 ± 0.04% | 45.7 µM | 10.85 ± 0.04% | –
9 | COc1cc(C=NNC(=S)NN=C2C(=O)Nc3ccc(I)cc32)ccc1O [compound 5] | – | – | – | – | – | – | – | IC50 [9]: 9.76 ± 0.03 µM
10 | O=C(Nc1ccccc1)c1c(Nc2ccccc2)n[nH]c1N=Cc1c[nH]c2ccccc12 [14a] | 55.04 ± 0.26% | 16.7 µM | 37.94 ± 0.17% | 17.1 µM | 52.79 ± 0.26% | 21.9 µM | 44.89 ± 0.26% | –
11 | CCN1C(=O)/C(=N\c2[nH]nc(Nc3ccccc3)c2C(=O)Nc2ccc(C)cc2)c2ccccc21 [12f] | 21.16 ± 0.04% | 39.4 µM | 15.36 ± 0.03% | 43.2 µM | 18.91 ± 0.04% | 44 µM | 11.01 ± 0.04% | –
12 | CCN1C(=O)C(=Nc2[nH]nc(Nc3ccc(OC)cc3)c2C(=O)Nc2ccccc2)c2ccccc21 [12g] | 23.40 ± 0.04% | 34.4 µM | 16.85 ± 0.03% | 37.4 µM | 21.15 ± 0.04% | 38.9 µM | 13.25 ± 0.04% | –
13 | CCN1C(=O)C(=Nc2[nH]nc(Nc3ccccc3)c2C(=O)Nc2ccccc2)c2ccccc21 [12e] | 19.87 ± 0.04% | 43.3 µM | 14.50 ± 0.03% | 47.8 µM | 17.62 ± 0.04% | 48 µM | 9.72 ± 0.04% | –
14 | CCC(=O)CN1C(=O)/C(=N/NC(=O)c2ccc(Br)cc2)c2ccccc21 [compound 4] | – | – | – | – | – | – | – | α-amylase IC50 [10]: 19.6 µg/mL
15 | COc1ccc(Nc2n[nH]c(N=Cc3c[nH]c4ccccc34)c2C(=O)Nc2ccc(C)cc2)cc1 [14d] | 37.88 ± 0.26% | 22 µM | 26.50 ± 0.17% | 22.9 µM | 35.63 ± 0.26% | 26.7 µM | 27.73 ± 0.26% | –
16 | C[C@H]1O[C@H](O[C@H]2[C@H](O)[C@@H](O)[C@@H](O[C@H]3[C@H](O)[C@@H](O)C(O)O[C@@H]3CO)O[C@@H]2CO)[C@H](O)[C@@H](O)[C@@H]1N[C@H]1C=C(CO)[C@@H](O)[C@H](O)[C@H]1O (stereo partly shown) [Acarbose] | – | – | – | – | – | – | – | α-Glucosidase Inhibition (%) [11]: 62.33 ± 0.16%
17 | Cc1ccc(NS(=O)(=O)c2ccc(-c3csc(N/N=C4\C(=O)Nc5ccc(Cl)cc54)n3)cc2)cc1 [compound 6] | – | – | – | – | – | – | – | IC50 [12]: 8.26 µM; selectivity against COX-2 (SI) [12]: 2.65; edema inhibition (EI) [13]: 38.50%
18 | COc1ccc(Nc2n[nH]c(N=C3C(=O)N(C)c4ccccc43)c2C(=O)Nc2ccccc2)cc1 [12c] | 23.23 ± 0.04% | 35.8 µM | 16.73 ± 0.03% | 38.8 µM | 20.98 ± 0.04% | 40.4 µM | 13.08 ± 0.04% | –
19 | Cc1ccc(NC(=O)c2c(Nc3ccccc3)n[nH]c2N=Cc2c[nH]c3ccccc23)cc1 [14b] | 72.08 ± 0.26% | 12.4 µM | 49.30 ± 0.17% | 12.5 µM | 69.83 ± 0.26% | 17.3 µM | 61.93 ± 0.26% | –
20 | Cc1ccc(/C=C2\SC(=O)N(CC(=O)NCCc3c[nH]c4ccccc34)C2=O)cc1 [compound 7] | – | – | – | – | – | – | – | glucose levels in diabetic mice [14]: suppressed glucose levels in diabetic mice
21 | CCN1C(=O)C(=Nc2[nH]nc(Nc3ccc(OC)cc3)c2C(=O)Nc2ccc(C)cc2)c2ccccc21 [12h] | 22.81 ± 0.04% | 34.3 µM | 16.45 ± 0.03% | 37.3 µM | 20.56 ± 0.04% | 38.7 µM | 12.66 ± 0.04% | –
